From patent US12478620B2, “Cyano-substituted cyclic hydrazine derivative and application thereof” (E-nitiate Biopharmaceuticals (Hangzhou) Co., Ltd, priority 2019, dated 2025)

How the values were obtained:
JAK2 = JAK2 (Homo sapiens, UniProt O60674); experiment: JAK kinase inhibitor activity detection (ULight-JAK-1 substrate, Eu-labeled anti-phosphotyrosine antibody), JAK2; assay type: biochemical; settings: JAK2 0.125 nM, substrate 50 nM, ATP 10 μM, 1 h room temperature
Method: (§1) Activity Detection of Small Molecule Inhibitors of JAK Kinase
(§2) • (1) kinase reaction buffer • Prepare the kinase reaction buffer with the following components: 50 mM HEPES, pH 7.5, 1 mM EGTA, 10 mM MgCl2, 2 mM DTT, 0.01% Tween20 • (2) 1× detection buffer • To prepare detection buffer, dilute 10× detection buffer to 1× with deionized water 9:1 • (3) 4× kinase solution • Dilute JAK to 4× final concentration by JAK reaction buffer (JAK1: 40 nM, JAK2: 0.5 nM) • (4) 4× substrate solution • Dilute ULight™-JAK-1 (Tyr1023) substrate to 200 nM by kinase reaction buffer (final concentration: 50 nM) • (5) 4×ATP solution • Dilute ATP to 4× final concentration by kinase reaction buffer (JAK1: 160 μM, JAK2: 40 μM) • (6) 4× compound testing solution • DMSO dissolves the testing compound into 10 mM stock solution, then prepared to the desired concentration with 3-fold serial dilution, and 10 concentration points were set for each compound. Besides, the final concentration range of the testing compound is: 10 μM-0.5 nM • (7) 4× enzyme reaction termination liquid • 1× test buffer dissolves EDTA to 40 mM (EDTA final concentration: 10 mM) • (8) 4× antibody detection solution • 1× test buffer dilutes Eu labeled antibody (anti-phosphotyrosine (PT66)) to 8 nM (antibody final concentration: 2 nM) 2. Experimental Process • (1) Successively add 2.5 μL 4×JAK solution, and 2.5 μL of diluted 4× test compound solution in different concentrations to the 384 microporous plate, and set 2 multi-wells for each concentration. Meanwhile, set enzyme solution blank control group and negative control group (DMSO group). • (2) Shake the 384-hole plate, mix enzymes and compounds, centrifuge at 1000 rpm for 1 minute, and incubate at room temperature for 60 minutes • (3) Add 2.5 μL of 4× substrate solution to a 384-hole plate and centrifuge at 1000 rpm for 1 min • (4) Add 2.5 μL of 4×ATP solution to the 384 multi-well plate and centrifuge at 1000 rpm for 1 minute to initiate the enzyme reaction. • (5) JAK1 reacts at room temperature for 2 h, and JAK2 react at room temperature for 1 h. • (6) The final concentrations of each group of the JAK1 reaction are: JAK1: 10 nM, substrate: 50 nM, ATP: 40 uM, and the final concentration range of the test compound is: 10 μM-0.5 nM • The final concentrations of each group of the JAK2 reaction are: JAK2: 0.125 nM, substrate: 50 nM, ATP: 10 μM, and the final concentration range of test compounds is: 10 μM-0.5 nM • (7) After the enzyme reaction, add 5 μL of 4× enzyme reaction stop solution to each well of the 384-well plate with 1000 rpm, centrifuge for 1 minute, and incubate at room temperature for 5 min. • (8) Add 5 μL of 4× detection antibody solution to each well of a 384-well plate (final concentration of detection antibody is 2 nM) with 1000 rpm, centrifuge for 1 minute, and incubate at room temperature for 1 h. • (10) After antibody incubation, measure the signal value of each well on an Envision plate reader 3. Data Analysis • (1) Taking the enzyme solution blank control group as 100% inhibition rate and the negative control group (DMSO group) as 0% inhibition rate, calculate the percentage inhibition rate corresponding to each concentration of the tested compounds • (2) In GraphPad Prism software, nonlinear regression analysis is performed on the concentration logarithm of the test compound and the corresponding percentage inhibition rate to obtain the half-inhibitory concentration (IC50) of the test compound.

JAK1 = JAK1 (Homo sapiens, UniProt P23458); experiment: JAK kinase inhibitor activity detection (ULight-JAK-1 substrate, Eu-labeled anti-phosphotyrosine antibody), JAK1; assay type: biochemical; settings: JAK1 10 nM, substrate 50 nM, ATP 40 uM, 2 h room temperature
Chain of JAK1 (P23458 whole entry, species assumed): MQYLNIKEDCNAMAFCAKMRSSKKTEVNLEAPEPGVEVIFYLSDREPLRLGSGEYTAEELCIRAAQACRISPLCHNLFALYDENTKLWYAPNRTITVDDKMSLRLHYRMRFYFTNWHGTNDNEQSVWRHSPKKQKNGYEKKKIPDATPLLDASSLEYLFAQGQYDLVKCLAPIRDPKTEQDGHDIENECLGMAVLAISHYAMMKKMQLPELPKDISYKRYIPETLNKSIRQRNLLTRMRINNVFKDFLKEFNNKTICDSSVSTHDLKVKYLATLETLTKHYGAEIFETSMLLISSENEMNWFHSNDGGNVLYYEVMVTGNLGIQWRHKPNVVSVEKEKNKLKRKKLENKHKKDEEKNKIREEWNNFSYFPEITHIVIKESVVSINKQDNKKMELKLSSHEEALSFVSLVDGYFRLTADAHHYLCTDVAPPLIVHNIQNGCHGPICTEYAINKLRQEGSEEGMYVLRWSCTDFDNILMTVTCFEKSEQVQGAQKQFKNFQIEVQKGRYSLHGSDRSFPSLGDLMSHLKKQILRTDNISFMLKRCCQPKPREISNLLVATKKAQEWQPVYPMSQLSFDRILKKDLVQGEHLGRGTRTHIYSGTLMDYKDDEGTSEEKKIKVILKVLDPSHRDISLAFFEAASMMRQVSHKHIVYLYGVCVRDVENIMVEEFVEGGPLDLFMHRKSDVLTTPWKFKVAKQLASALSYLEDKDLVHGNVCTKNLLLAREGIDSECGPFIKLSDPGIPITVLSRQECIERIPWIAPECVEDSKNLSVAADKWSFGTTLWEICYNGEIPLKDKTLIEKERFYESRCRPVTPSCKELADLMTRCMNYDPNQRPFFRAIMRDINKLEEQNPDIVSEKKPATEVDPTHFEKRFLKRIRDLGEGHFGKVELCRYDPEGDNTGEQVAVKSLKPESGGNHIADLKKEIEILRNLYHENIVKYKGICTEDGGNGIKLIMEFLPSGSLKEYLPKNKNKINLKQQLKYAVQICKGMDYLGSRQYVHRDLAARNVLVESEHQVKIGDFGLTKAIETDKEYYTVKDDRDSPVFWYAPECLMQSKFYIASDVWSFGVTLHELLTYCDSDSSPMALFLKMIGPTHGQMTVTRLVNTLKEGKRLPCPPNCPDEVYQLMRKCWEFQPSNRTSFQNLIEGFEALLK
Method: as §1, §2

Chain of JAK2 (O60674 whole entry, species assumed): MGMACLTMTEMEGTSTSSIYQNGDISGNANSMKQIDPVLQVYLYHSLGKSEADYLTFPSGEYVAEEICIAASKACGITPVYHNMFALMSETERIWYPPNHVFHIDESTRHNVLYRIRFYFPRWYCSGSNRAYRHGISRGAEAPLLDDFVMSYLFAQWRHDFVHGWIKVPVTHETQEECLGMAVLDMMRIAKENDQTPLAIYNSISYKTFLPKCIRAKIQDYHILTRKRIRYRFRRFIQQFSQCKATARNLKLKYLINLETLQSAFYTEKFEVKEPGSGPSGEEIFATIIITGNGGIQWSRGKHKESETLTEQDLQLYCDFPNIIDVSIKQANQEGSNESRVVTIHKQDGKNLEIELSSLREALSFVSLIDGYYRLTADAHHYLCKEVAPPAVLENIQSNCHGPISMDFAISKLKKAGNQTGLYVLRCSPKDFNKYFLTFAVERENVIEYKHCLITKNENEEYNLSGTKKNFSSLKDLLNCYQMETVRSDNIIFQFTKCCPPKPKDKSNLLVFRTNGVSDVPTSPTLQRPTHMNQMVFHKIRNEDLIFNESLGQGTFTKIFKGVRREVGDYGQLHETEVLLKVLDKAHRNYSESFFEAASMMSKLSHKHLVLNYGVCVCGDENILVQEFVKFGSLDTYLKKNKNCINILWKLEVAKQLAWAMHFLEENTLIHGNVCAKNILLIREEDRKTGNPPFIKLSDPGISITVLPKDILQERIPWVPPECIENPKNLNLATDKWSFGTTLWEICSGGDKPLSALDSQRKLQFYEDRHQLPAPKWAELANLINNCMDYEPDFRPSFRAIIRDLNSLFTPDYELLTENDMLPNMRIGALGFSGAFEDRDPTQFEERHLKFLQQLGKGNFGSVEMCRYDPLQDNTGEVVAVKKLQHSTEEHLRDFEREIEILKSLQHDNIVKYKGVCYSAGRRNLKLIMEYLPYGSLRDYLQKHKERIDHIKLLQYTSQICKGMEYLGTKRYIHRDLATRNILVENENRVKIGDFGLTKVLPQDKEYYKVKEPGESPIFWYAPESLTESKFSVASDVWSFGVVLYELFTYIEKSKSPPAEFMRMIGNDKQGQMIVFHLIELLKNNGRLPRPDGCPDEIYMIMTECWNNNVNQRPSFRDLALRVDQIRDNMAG

| IC50 (JAK2) [nM] | IC50 (JAK1) [nM] | Structure (SMILES) |
| --- | --- | --- |
| 0.28 | 0.17 | Cc1nc2cnc3[nH]ccc3c2n1N1CCC(CC#N)CC1 [Example 3, 2-(1-(methylimidazo[4,5-d]pyrrolo[2,3-b]pyridine-1(6H)-yl)piperidin-4-yl)acetonitrile] |
| 0.95 | 0.47 | CCc1nc2cnc3[nH]ccc3c2n1N1CCC(CC#N)CC1 [Example 4, 2-(1-(ethylimidazo[4,5-d]pyrrolo[2,3-b]pyridine-1(6H)-yl)piperidin-4-yl)acetonitrile] |
| 1.45 | 0.28 | N#CCC1CCN(n2c(CO)nc3cnc4[nH]ccc4c32)CC1 [Example 5, 2-(1-(2-(hydroxymethyl)imidazo[4,5-d]pyrrolo[2,3-b]pyridine-1(6H)-yl)piperidin-4-yl)acetonitrile] |
| 3.89 | 0.66 | N#CCC1CCN(n2c(CCO)nc3cnc4[nH]ccc4c32)CC1 [Example 6, 2-(1-(2-(2-hydroxyethyl)imidazo[4,5-d]pyrrolo[2,3-b]pyridine-1(6H)-yl)piperidin-4-yl)acetonitrile] |
| 4 | 0.08 | C[C@@H](O)c1nc2cnc3[nH]ccc3c2n1N1CCC(CC#N)CC1 [Example 7, (R)-2-(1-(2-(1-hydroxyethyl)imidazo[4,5-d]pyrrolo[2,3-b]pyridine-1(6H)-yl)piperidin-4-yl)acetonitrile] |
| 5 | 1.5 | C[C@H](O)c1nc2cnc3[nH]ccc3c2n1N1CCC(CC#N)CC1 [Example 8, (S)-2-(1-(2-(1-hydroxyethyl)imidazo[4,5-d]pyrrolo[2,3-b]pyridine-1(6H)-yl)piperidin-4-yl)acetonitrile] |
| 0.7 | 0.14 | N#CCC1CCN(n2c(N)nc3cnc4[nH]ccc4c32)CC1 [Example 9, 2-(1-(2-aminoimidazo[4,5-d]pyrrolo[2,3-b]pyridine-1(6H)-yl)piperidin-4-yl)acetonitrile] |
| 16.1 | 5.14 | C[C@@H](O)c1nc2cnc3[nH]ccc3c2n1N1CCC(C(C)(C)C#N)CC1 [Example 15, (R)-2-(1-(2-(1-hydroxyethyl)imidazo[4,5-d]pyrrolo[2,3-b]pyridine-1(6H)-yl)piperidine-4-yl)-2-methyl propionitrile] |
| 6.07 | 2.71 | C[C@@H](O)c1nc2cnc3[nH]ccc3c2n1N1C2CCC1CC(CC#N)C2 (stereo partly drawn) [Example 23, 2-(8-(2-((R)-1-hydroxyethyl)imidazo[4,5-d]pyrrolo[2,3-b]pyridin-1(6H)-yl)-8-azabicyclo[3.2.1]octan-3-yl)acetonitrile] |
| 2.3 | 1.7 | C[C@@H](O)c1nc2cnc3[nH]ccc3c2n1N1CCCC(CC#N)CC1 (stereo partly drawn) [Example 27, 2-(1-(2-((R)-1-hydroxyethyl)imidazo[4,5-d]pyrrolo[2,3-b]pyridin-1(6H)-yl)-6-azepan-4-yl)acetonitrile] |

The remaining lines, values behind:

| Structure (SMILES) | IC50 (JAK2) [nM] | IC50 (JAK1) [nM] |
| --- | --- | --- |
| N#CC1CCN(n2cnc3cnc4[nH]ccc4c32)CC1 [Example 1, 1-(imidazo[4,5-d]pyrrolo[2,3-b]pyridine-1(6H)-yl)piperidine-4-carbonitrile] | 70.9 | 23.8 |
| N#CCC1CCN(n2cnc3cnc4[nH]ccc4c32)CC1 [Example 2, 2-(1-(imidazo[4,5-d]pyrrolo[2,3-b]pyridine-1(6H)-yl)piperidin-4-yl)acetonitrile] | 1.7 | 0.28 |
| CS(=O)(=O)NCc1nc2cnc3[nH]ccc3c2n1N1CCC(CC#N)CC1 [Example 10, N-((1-(4-(cyanomethyl)piperidin-1-yl)-1,6-dihydroimidazole[4,5-d]pyrrolo[2,3-b]pyridine-2-yl)methyl)methanesulfonamide] | 6.1 | 0.8 |
| N#CCCC1CCN(n2cnc3cnc4[nH]ccc4c32)CC1 [Example 11] | 2.98 | 0.57 |
| N#CC1CC12CCN(n1cnc3cnc4[nH]ccc4c31)CC2 (stereo not shown) [Example 12, 6-(imidazo[4,5-d]pyrrolo[2,3-b]pyridine-1(6H)-yl)-6-azaspiro[2.5]octane-1-carbonitrile] | 3.28 | 1.77 |
| C[C@@H](O)c1nc2cnc3[nH]ccc3c2n1N1CCC2(CC1)CC2C#N (stereo partly drawn) [Example 13, 6-(2-((R)-1-hydroxyethyl)imidazo[4,5-d]pyrrolo[2,3-b]pyridine-1(6H)-yl)-6-azaspiro[2.5]octane-1-carbonitrile] | 56.7 | 16 |
| CC(C)(C#N)C1CCN(n2cnc3cnc4[nH]ccc4c32)CC1 [Example 14, 2-(1-(imidazo[4,5-d]pyrrolo[2,3-b]pyridine-1(6H)-yl)piperidine-4-yl)-2-methyl propionitrile] | 7.5 | 13.5 |
| N#CC=C1CCN(n2cnc3cnc4[nH]ccc4c32)CC1 [Example 16, 2-(1-(imidazo[4,5-d]pyrrolo[2,3-b]pyridin-1(6H)-yl)piperidin-4-ylidene)acetonitrile] | 16.1 | 1.31 |
| CC1(CC#N)CCN(n2cnc3cnc4[nH]ccc4c32)CC1 [Example 17, 2-(1-(imidazo[4,5-d]pyrrolo[2,3-b]pyridine-1(6H)-yl)-4-methylpiperidine-4-yl)acetonitrile] | 1.2 | 2 |
| C[C@@H](O)c1nc2cnc3[nH]ccc3c2n1N1CCC(C)(CC#N)CC1 [Example 18, (R)-2-(1-(2-(1-hydroxyethyl)imidazo[4,5-d]pyrrolo[2,3-b]pyridine-1(6H)-yl)-4-methylpiperidine-4-yl)acetonitrile] | 13.8 | 6.31 |
| N#CCC1(O)CCN(n2cnc3cnc4[nH]ccc4c32)CC1 [Example 19, 2-(4-hydroxy-1-(imidazo[4,5-d]pyrrolo[2,3-b]pyridine-1(6H)-yl)-piperidine-4-yl)acetonitrile] | 6.01 | 2.37 |
| N#CC=C1CC2CCC(C1)N2n1cnc2cnc3[nH]ccc3c21 [Example 20, 2-(8-(imidazo[4,5-d]pyrrolo[2,3-b]pyridin-1(6H)-yl)-8-azabicyclo[3.2.1]octan-3-ylidene)acetonitrile] | 1.9 | 4.3 |
| N#CCC1CC2CCC(C1)N2n1cnc2cnc3[nH]ccc3c21 (stereo not shown) [Example 21, 2-(8-(imidazo[4,5-d]pyrrolo[2,3-b]pyridin-1(6H)-yl)-8-azabicyclo[3.2.1]octan-3-yl)acetonitrile] | 4.77 | 0.92 |
| C[C@@H](O)c1nc2cnc3[nH]ccc3c2n1N1C2CCC1CC(=CC#N)C2 [Example 22, 2-(8-(2-((R)-1-hydroxyethyl)imidazo[4,5-d]pyrrolo[2,3-b]pyridin-1(6H)-yl)-8-azabicyclo[3.2.1]octan-3-ylidene)acetonitrile] | 4.04 | 1.6 |
| N#CCN1CCN(n2cnc3cnc4[nH]ccc4c32)CC1 [Example 24, 3-(4-(imidazo[4,5-d]pyrrolo[2,3-b]pyridin-1(6H)-yl)piperazin-1-yl)acetonitrile] | 46.6 | 7.72 |
| N#CCCN1CCN(n2cnc3cnc4[nH]ccc4c32)CC1 [Example 25, 3-(4-(imidazo[4,5-d]pyrrolo[2,3-b]pyridin-1(6H)-yl)piperazin-1-yl)propanenitrile] | 5.3 | 5.2 |
| N#CCC(=O)N1CCN(n2cnc3cnc4[nH]ccc4c32)CC1 [Example 26, 3-(4-(imidazo[4,5-d]pyrrorolo[2,3-b]pyridin-1(6H)-yl)piperazin-1-yl)oxypropionitrile] | 151 | 41.7 |
| CCC1CN(C(=O)CC#N)CN1n1cnc2cnc3[nH]ccc3c21 (stereo not shown) [Example 28] | 13.1 | 3.5 |
| CCC1CN(CCC#N)CN1n1cnc2cnc3[nH]ccc3c21 (stereo not shown) [Example 29, 3-(4-ethyl-3-(imidazo[4,5-d]pyrrolo[2,3-b]pyridine-1(6H)-yl)imidazolidine-1-yl)propionitrile] | 27.5 | 13.9 |
